Source: the NIST ThermoML archive (doi:10.1016/j.fluid.2005.03.014)
Numbers after ± are expanded uncertainties.

How the values were obtained:
[1] = Liquid; for mass density: 298.15 K, 101.33 kPa
[2] = refractive index (Na D-line) (dimensionless); details: 298.15 K; 101.33 kPa; Liquid; Standard Abbe refractometry

CC(C)CO [2-methyl-1-propanol]
Details | mass density [kg/m3] | refractive index
[1] | 797.83 ± 0.61 | –
[2] | – | 1.3937 ± 0.0007

CC(=O)OCC(C)C [2-methylpropyl ethanoate]
Details | mass density [kg/m3] | refractive index
[1] | 866.12 ± 0.62 | –
[2] | – | 1.3876 ± 0.0008

CN(C)C=O [dimethylformamide]
Details | mass density [kg/m3] | refractive index
[1] | 948.72 ± 0.27 | –
[2] | – | 1.4265 ± 0.0007

[1]
Details | vapor or sublimation pressure [kPa]
345.45 K | 6.3 ± 0.23
350.38 K | 7.81 ± 0.23
354.51 K | 9.27 ± 0.24
359.05 K | 11.16 ± 0.24
362.74 K | 12.93 ± 0.24
366.7 K | 15.07 ± 0.24
370.69 K | 17.53 ± 0.24
374.89 K | 20.48 ± 0.24
379.24 K | 23.95 ± 0.24
382.97 K | 27.32 ± 0.25
386.75 K | 31.1 ± 0.25
390.07 K | 34.78 ± 0.25
393.2 K | 38.56 ± 0.26
396.61 K | 43.04 ± 0.26
399.91 K | 47.82 ± 0.26
403.1 K | 52.73 ± 0.27
405.94 K | 57.53 ± 0.27
408.79 K | 62.66 ± 0.27
411.23 K | 67.37 ± 0.28
413.35 K | 71.68 ± 0.28
415.66 K | 76.65 ± 0.29
417.84 K | 81.58 ± 0.29
419.86 K | 86.33 ± 0.29
421.87 K | 91.37 ± 0.3
423.7 K | 96.06 ± 0.3
425.6 K | 101.2 ± 0.31
